Measured values reported in patent US20100267561A1, “HERBICIDAL PYRIDAZINONE DERIVATIVES” (priority 2007, published 2010).
Like-named read-outs stand apart in the source and are kept apart here.

Columns and labels:
Format in all cases: in vivo
[1] = system: ducksalad (Heteranthera limosa); experiment: Test B flooded paddy test plant response; conditions: Heteranthera limosa, read-out: Plant response rating, Ducksalad
Summary of the method: (§1)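 Step one: raise plants to 2 leaves. Step two: flood pots 3 cm over the soil and apply compound into the water, keeping this depth. Step three: after 13–15 greenhouse days, score visually versus controls, 0–100, where 100 means complete control.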

[2] = system: barnyardgrass (Echinochloa crus-galli); experiment: Test B flooded paddy test plant response; conditions: Echinochloa crus-galli, read-out: Plant response rating, Barnyardgrass
Summary of the method: as §1

[3] = system: umbrella sedge (Cyperus difformis); experiment: Test B flooded paddy test plant response; conditions: Cyperus difformis, read-out: Plant response rating, Sedge, Umbrella
Summary of the method: as §1

rice (Oryza sativa) = experiment: Test B flooded paddy test plant response; conditions: Oryza sativa, read-out: Plant response rating, Rice
Summary of the method: as §1

[4] = system: morningglory (Ipomoea coccinea); experiment: Test A pre-/postemergence plant response
Summary of the method: (§2)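 Both pre- and postemergence treatment given concurrently; postemergence seedlings measured 2–10 cm at the one- to two-leaf stage. Visual injury, 0–100 scale versus untreated, at ~10 days.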

[5] = system: large crabgrass (Digitaria sanguinalis); experiment: Test A pre-/postemergence plant response; conditions: Digitaria sanguinalis, 240 h, read-out: Plant response rating, Crabgrass, Large; for pest or weed control at 125 g/ha: 125 g ai/ha; for pest or weed control at 500 g/ha: 500 g ai/ha
Summary of the method: as §2

corn (Zea mays) = experiment: Test A pre-/postemergence plant response; conditions: Zea mays, 240 h; for Corn plant response rating (crop injury, 0 = no effect, 100 = complete kill) at 125 g/ha: 125 g ai/ha; for Corn plant response rating (crop injury, 0 = no effect, 100 = complete kill) at 500 g/ha: 500 g ai/ha
Summary of the method: as §2

[6] = system: barnyardgrass (Echinochloa crus-galli); experiment: Test A pre-/postemergence plant response; conditions: Echinochloa crus-galli, 240 h, read-out: Plant response rating, Barnyardgrass; for pest or weed control at 125 g/ha: 125 g ai/ha; for pest or weed control at 500 g/ha: 500 g ai/ha
Summary of the method: as §2

[7] = system: velvetleaf (Abutilon theophrasti); experiment: Test A pre-/postemergence plant response
Summary of the method: as §2

[8] = system: giant foxtail (Setaria faberi); experiment: Test A pre-/postemergence plant response; conditions: Setaria faberi, 240 h, read-out: Plant response rating, Foxtail, Giant; for pest or weed control at 125 g/ha: 125 g ai/ha; for pest or weed control at 500 g/ha: 500 g ai/ha
Summary of the method: as §2

[9] = system: pigweed (Amaranthus retroflexus); experiment: Test A pre-/postemergence plant response; conditions: Amaranthus retroflexus, 240 h, read-out: Plant response rating, Pigweed; for pest or weed control at 125 g/ha: 125 g ai/ha; for pest or weed control at 500 g/ha: 500 g ai/ha
Summary of the method: as §2

[10] = system: canarygrass (Phalaris minor); experiment: Test B postemergence plant response; conditions: for Plant response rating, Canarygrass: Postemergence
Summary of the method: (§3)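 Compounds applied after emergence to 2–18 cm plants; response read visually 13–15 days later on 0 (none) to 100 (complete control); a dash marks no result.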

[11] = system: winter barley (Hordeum vulgare); experiment: Test B postemergence plant response; conditions: for Plant response rating, Barley: Postemergence, scale 0 to 100, 0 no effect, 100 complete control
Summary of the method: as §3

[12] = system: windgrass (Apera spica-venti); experiment: Test B postemergence plant response; conditions: for Plant response rating, Windgrass: Postemergence
Summary of the method: as §3

[13] = system: chickweed (Stellaria media); experiment: Test B postemergence plant response; conditions: for Plant response rating, Chickweed: Postemergence
Summary of the method: as §3

[14] = Flood (flooded paddy test), 62 g ai/ha, scale 0 to 100, 0 no effect, 100 complete control
[15] = Flood (flooded paddy test), 250 g ai/ha, scale 0 to 100, 0 no effect, 100 complete control
[16] = Flood, 31 g ai/ha, scale 0 to 100
[17] = Flood (flooded paddy test), 125 g ai/ha, scale 0 to 100, 0 no effect, 100 complete control
[18] = Postemergence, 125 g ai/ha, 0 to 100 scale, 0 no effect, 100 complete control
[19] = Postemergence, 500 g ai/ha, 0 to 100 scale, 0 no effect, 100 complete control
[20] = Preemergence, 125 g ai/ha, 0 to 100 scale (0 no effect, 100 complete control)
[21] = Preemergence, 500 g ai/ha, 0 to 100 scale (0 no effect, 100 complete control)
[22] = post-emergence, Postemergence, 0 to 100 scale, 0 no effect, 100 complete control
[23] = pre-emergence, Preemergence, 0 to 100 scale (0 no effect, 100 complete control)
[24] = 8 g ai/ha, postemergence, 0-100 scale
[25] = 31 g ai/ha, scale 0 to 100, 0 no effect, 100 complete control
[26] = 62 g ai/ha, scale 0 to 100, 0 no effect, 100 complete control

Compound: CCc1c(C)c(-c2ccc(Cl)cc2)nn1-c1c(O)cnn(C)c1=O [Compound 26, 4-[3-(4-chlorophenyl)-5-ethyl-4-methyl-1H-pyrazol-1-yl]-5-hydroxy-2-methyl-3(2H)-pyridazinone]
- pest or weed control at 62 g/ha [1, 14]: 50%
- pest or weed control at 250 g/ha [1, 15]: 70%
- pest or weed control at 31 g/ha [1, 16]: 40%
- pest or weed control at 62 g/ha [2, 14]: 0%
- pest or weed control at 125 g/ha [2, 17]: 0%
- pest or weed control at 250 g/ha [2, 15]: 20%
- pest or weed control at 31 g/ha [2, 16]: 0%
- pest or weed control at 62 g/ha [3, 14]: 0%
- pest or weed control at 125 g/ha [3, 17]: 0%
- pest or weed control at 250 g/ha [3, 15]: 75%
- pest or weed control at 31 g/ha [3, 16]: 0%
- plant injury at 62 g/ha (rice (Oryza sativa); [14]): 0%
- plant injury at 125 g/ha (rice (Oryza sativa); [17]): 0%
- plant injury at 250 g/ha (rice (Oryza sativa); [15]): 0%
- plant injury at 31 g/ha (rice (Oryza sativa); [16]): 0%
- Plant response rating, Morningglory [4, 18]: 0
- Plant response rating, Morningglory [4, 19]: 20
- Plant response rating, Morningglory [4, 20]: 0
- Plant response rating, Morningglory [4, 21]: 0
- pest or weed control at 125 g/ha [5, 22]: 80%
- pest or weed control at 500 g/ha [5, 22]: 100%
- pest or weed control at 125 g/ha [5, 23]: 90%
- pest or weed control at 500 g/ha [5, 23]: 100%
- Corn plant response rating (crop injury, 0 = no effect, 100 = complete kill) at 125 g/ha (corn (Zea mays); [22]): 60%
- Corn plant response rating (crop injury, 0 = no effect, 100 = complete kill) at 500 g/ha (corn (Zea mays); [22]): 100%
- Corn plant response rating (crop injury, 0 = no effect, 100 = complete kill) at 125 g/ha (corn (Zea mays); [23]): 50%
- Corn plant response rating (crop injury, 0 = no effect, 100 = complete kill) at 500 g/ha (corn (Zea mays); [23]): 90%
- pest or weed control at 125 g/ha [6, 22]: 100%
- pest or weed control at 500 g/ha [6, 22]: 100%
- pest or weed control at 125 g/ha [6, 23]: 100%
- pest or weed control at 500 g/ha [6, 23]: 100%
- Plant response rating, Velvetleaf [7, 18]: 0
- Plant response rating, Velvetleaf [7, 19]: 20
- Plant response rating, Velvetleaf [7, 20]: 0
- Plant response rating, Velvetleaf [7, 21]: 0
- pest or weed control at 125 g/ha [8, 22]: 90%
- pest or weed control at 500 g/ha [8, 22]: 100%
- pest or weed control at 125 g/ha [8, 23]: 100%
- pest or weed control at 500 g/ha [8, 23]: 100%
- pest or weed control at 125 g/ha [9, 22]: 0%
- pest or weed control at 500 g/ha [9, 22]: 0%
- pest or weed control at 125 g/ha [9, 23]: 0%
- pest or weed control at 500 g/ha [9, 23]: 0%
- Canarygrass plant response rating [10, 24]: 10
- Plant response rating, Canarygrass ([10]; 16 g ai/ha, scale 0 to 100): 10
- Plant response rating, Canarygrass [10, 25]: 60
- Barley plant response rating [11, 24]: 0
- Plant response rating, Barley ([11]; 16 g ai/ha): 0
- Plant response rating, Barley ([11]; 31 g ai/ha): 0
- Plant response rating, Barley ([11]; 62 g ai/ha): 0
- Windgrass plant response rating [12, 24]: 50
- Plant response rating, Windgrass ([12]; 16 g ai/ha, scale 0 to 100): 80
- Plant response rating, Windgrass [12, 26]: 95
- Chickweed plant response rating [13, 24]: 0
- Plant response rating, Chickweed ([13]; 16 g ai/ha, scale 0 to 100): 0
- Plant response rating, Chickweed [13, 25]: 0
- Plant response rating, Chickweed [13, 26]: 0
